From patent US11213522B2, “Autoimmune-induced glutamatergic receptor dysfunction methods and treatments” (SARAH HERZOG MEMORIAL HOSPITAL EZRAT NASHIM ASSOCIATION, priority 2013, dated 2022)

What was measured:
[1] = system: patient positive for anti-NR1 NMDAR antibodies; assay: Abnormal Involuntary Movement Scale (AIMS), D-serine clinical trial; type: in vivo, human; conditions: for AIMS: week 0 score 1
Description: Out of the seventeen patients that entered the study, the serum of one patient was strongly positive at both serum sample dilutions for the presence of both IgG and IgM classes of anti-NR1 NMDAR antibodies. The patient was a single person having a diagnosis of schizophrenia according to DSM-IV-R criteria (American Psychiatric Association, 2000 Diagnostic and Statistical Manual of Mental Disorders-(DSM-IV-TR), 4th edition. American Psychiatric Association Washington D.C. (Text Revision)). There was no history of mental disorder in the patient's family. The patient had completed post-high school studies and had worked as a secretary. After a period of continuous headaches, for which no organic basis had been found, they had abruptly developed an acute psychosis characterized by grandiose and paranoid delusions, mystical thinking, […] affect and agitation, They had been hospitalized in a psychiatric hospital and underwent treatment with antipsychotic drugs and electroconvulsive therapy with only partial response. The patient had never returned to their previous functional and except for short attempts at living in the community, has been hospitalized ever since. They have been refractory to treatment with various classes of antipsychotic drugs, was not diagnosed with any medical or neurological disorder and was maintained on sulpiride 50 mg/day, citalopram 40 mg/day, lorazepam 1 mg/day and promethazine 50 mg/day. […] DSR is a naturally occurring amino acid that acts in vivo as an obligatory co-agonist at the glycine modulatory site associated with NMDAR. […] Both acute and chronic administration of 1-2 g DSR in humans is known to result in ≥100 times increases in DSR serum levels (Kantrowitz et al., 2010, Schizophr Res121:125-30; Heresco-Levy et al., 2005, Biol Psychiatry 57:577-85). The trial consisted of two periods, starting with a 2 week lead-in/stabilization period (-2-0) following which the patient was entered in the second period of the study which consisted of a 6 week (0-6), open-label, fixed dose therapy phase. During this phase, the patient received adjuvant treatment with DSR, whose dose was increased from 1500 mg/day (week 1) to 2000 mg/day (weeks 2 and 3) to 3000 mg/day (weeks 4 and 5) and to 4000 mg/day (week 6). The doses of the ongoing medication received by the patient remained fixed throughout the study and no changes in medication were performed. The assessment procedures used in the study included clinical and neurocognitive examinations. Motor and psychiatric symptoms as well as side-effects were rated biweekly throughout the study. […] In conjunction with UKU ratings, patient's vital signs and body weight were monitored throughout the study.

[2] = system: patient positive for anti-NR1 NMDAR antibodies; assay: Positive and Negative Syndrome Scale (PANSS), D-serine clinical trial; type: in vivo, human; conditions: for PANSS Negative: week 0 score 18; for PANSS Positive: week 0 score 24; for PANSS General: week 0 score 55; for PANSS Total: week 0 score 97
Description: Out of the seventeen patients that entered the study, the serum of one patient was strongly positive at both serum sample dilutions for the presence of both IgG and IgM classes of anti-NR1 NMDAR antibodies. The patient was a single person having a diagnosis of schizophrenia according to DSM-IV-R criteria (American Psychiatric Association, 2000 Diagnostic and Statistical Manual of Mental Disorders-(DSM-IV-TR), 4th edition. American Psychiatric Association Washington D.C. (Text Revision)). There was no history of mental disorder in the patient's family. The patient had completed post-high school studies and had worked as a secretary. After a period of continuous headaches, for which no organic basis had been found, they had abruptly developed an acute psychosis characterized by grandiose and paranoid delusions, mystical thinking, […] affect and agitation, They had been hospitalized in a psychiatric hospital and underwent treatment with antipsychotic drugs and electroconvulsive therapy with only partial response. The patient had never returned to their previous functional and except for short attempts at living in the community, has been hospitalized ever since. They have been refractory to treatment with various classes of antipsychotic drugs, was not diagnosed with any medical or neurological disorder and was maintained on sulpiride 50 mg/day, citalopram 40 mg/day, lorazepam 1 mg/day and promethazine 50 mg/day. […] DSR is a naturally occurring amino acid that acts in vivo as an obligatory co-agonist at the glycine modulatory site associated with NMDAR. […] Both acute and chronic administration of 1-2 g DSR in humans is known to result in ≥100 times increases in DSR serum levels (Kantrowitz et al., 2010, Schizophr Res121:125-30; Heresco-Levy et al., 2005, Biol Psychiatry 57:577-85). The trial consisted of two periods, starting with a 2 week lead-in/stabilization period (-2-0) following which the patient was entered in the second period of the study which consisted of a 6 week (0-6), open-label, fixed dose therapy phase. During this phase, the patient received adjuvant treatment with DSR, whose dose was increased from 1500 mg/day (week 1) to 2000 mg/day (weeks 2 and 3) to 3000 mg/day (weeks 4 and 5) and to 4000 mg/day (week 6). The doses of the ongoing medication received by the patient remained fixed throughout the study and no changes in medication were performed. The assessment procedures used in the study included clinical and neurocognitive examinations. Motor and psychiatric symptoms as well as side-effects were rated biweekly throughout the study. The following instruments were used: 1) Positive and Negative Syndrome Scale (PANSS) (Kay et al., 1987, Positive and Negative Syndrome Scale (PANSS) rating manual. San Rafael California: Social and Behavioral Sciences Documents); 2) Quality of Life Scale (QLS) (Wilkinson et al., 2000, Self-report quality of life measure for people with schizophrenia: the SQLS. Br J Psychiatry 177:42-6); 3) Abnormal Involuntary Movement Scale (AIMS) (Guy, 1976, ECDEU Assessment Manual for Psychopharmacology-Revised. Rockville, Md.: US Dept. of Health, Education and Welfare); 4) Simpson Angus Scale for Extrapyramidal Symptoms (SAS) (Simpson and Angus, 1970, Acta Psychiatr Scand Suppl. 212:11-9); and 5) Udvalg for […] Undersogelser (UKU) Side Effect Rating Scale (Lingjaerde, et al., 1987 Acta Psychiatr Scand Suppl 334:1-100). In conjunction with UKU ratings, patient's vital signs and body weight were monitored throughout the study.

## N[C@H](CO)C(=O)O [D-serine]
[1]; following DSR administration, minimal at baseline
  Motor symptomatology, as measured by AIMS and SAS scores: improvements were registered
[1]; study week 2
  AIMS: 0
[1]; study week 4
  AIMS: 0
[1]; study week 6
  AIMS: 0
[2]; during treatment with DSR
  PANSS positive, negative and general psychopathology symptom domains: improved
[2]; end of study vs baseline total score of 97
  Total PANSS score lower by the end of the study: 17%
[2]; study week 2
  PANSS Negative: 19
  PANSS Positive: 21
  PANSS General: 54
  PANSS Total: 96
[2]; study week 4
  PANSS Negative: 17
  PANSS Positive: 21
  PANSS General: 51
  PANSS Total: 89
[2]; study week 6
  PANSS Negative: 16
  PANSS Positive: 19
  PANSS General: 45
  PANSS Total: 80
